The text below walks through data of paper PMC11940343, “In Vitro and In Vivo Evaluation of the De Novo Designed Antimicrobial Peptide P6.2 Against a KPC-Producing P. aeruginosa Clinical Isolate” (Biomolecules, 2025).

No end group written: not given here.

The subject of test [1] is Pseudomonas aeruginosa M13513. As to the kind of experiment: MIC by broth microdilution (CLSI). The test is classed as cell-based. The conditions noted are these: CAMHB, two consecutive values shown where replicates varied by one dilution. From the text:
Pseudomonas aeruginosa M13513 is a clinical isolate carrying the carbapenemase KPC-2 (blaKPC-2 gene). This strain was generously supplied by the Servicio Antimicrobianos, Instituto Nacional de Enfermedades Infecciosas (INEI)-ANLIS “Dr. Carlos G. Malbrán” in Buenos Aires, Argentina.
For antimicrobial testing, bacterial cultures were maintained in Cation-Adjusted Mueller–Hinton Broth (CAMHB), following Clinical and Laboratory Standards Institute (CLSI) guidelines.
The minimal inhibitory concentration was assessed using a standard microdilution assay, following CLSI guidelines. Mueller–Hinton Broth (Laboratorios Britania S.A., Buenos Aires, Argentina) supplemented with Ca^2+ (20–25 mg/L) and Mg^2+ (10–12.5 mg/L) was used for the assay. The bacterial strains tested included Pseudomonas aeruginosa PAO1, Pseudomonas aeruginosa M13513, and Staphylococcus aureus ATCC® 25923.

Another test has as its system P. aeruginosa M13513. Kind of test: Inhibition of biofilm formation (crystal violet). The test is classed as cell-based, Pseudomonas aeruginosa. The conditions noted are these: sub-MIC concentrations (1/8 to 1/2 of the MIC), 24 h. As to the method: The assessment of biofilm inhibition was carried out using 96-well flat-bottom polystyrene plates. Antimicrobial agents were diluted in Mueller–Hinton broth through a two-fold serial dilution and subsequently inoculated with a fresh bacterial culture to obtain a final concentration of 5 × 10^5 CFU/mL, with a total well volume of 100 µL. The plates were then incubated at 37 °C for 24 h. Bacteria cultured without the peptide served as the control. To evaluate biofilm formation following peptide exposure, the supernatant was carefully removed, and the wells were washed twice with 100 µL of saline solution to eliminate any non-adherent cells. The remaining biofilm was fixed by adding 100 µL of methanol for 15 min, followed by staining with 100 µL of 1% (v/v) crystal violet ( Sigma-Aldrich, Massachusetts, USA) for 5 min. After staining, the excess dye was discarded, and the wells were rinsed twice with 200 µL of distilled water before allowing the plate to dry at 37 °C for 30 min. Finally, 100 µL of 33% acetic acid was added to each well, and the samples were homogenized by gentle agitation. The absorbance was then measured at 595 nm using a microplate reader (RT2100, Rayto Life and Analytical Sciences Co., Ltd., Shenzhen, China).

The subject of test [2] is P. aeruginosa strain PA01. The note with it: sub-MIC concentrations, reference strain PAO1; cited from earlier work. From the text:
Biofilms are complex bacterial communities characterized by extensive intercellular interactions. Biofilm-associated bacteria, including P. aeruginosa, are commonly implicated in chronic infections that can persist for years. As such, managing biofilm-associated infections has become a critical focus in antimicrobial therapy, given their resistance to conventional antibiotic concentrations.

GLLRKWGKKWKEFLRRVWK-NH2 [Peptide P6.2]: the MIC in test [1] was 32/64. Further, in the test with P. aeruginosa M13513, the biofilm inhibitory activity entry is recorded as “did not show anti-biofilm activity”. Moreover, the anti-biofilm activity entry in test [2] is on record as “did not display anti-biofilm activity”.
